Measured values from ChEMBL document CHEMBL1817541, “Synthesis and Evaluation of the α-D-/α-L-Rhamnosyl and Amicetosyl Digitoxigenin Oligomers as Anti-tumor Agents” (ACS Med Chem Lett, 2011).

Columns and labels:
Assay type in all cases: functional
DU-145 = assay: Cytotoxicity against human DU145 cells after 48 hrs by sulforhodamine B assay; conditions: DU-145, 48 h
NCI-H23 = assay: Cytotoxicity against human NCI-H23 cells after 48 hrs by sulforhodamine B assay; conditions: NCI-H23, 48 h
MCF7 = assay: Cytotoxicity against human MCF7 cells after 48 hrs by sulforhodamine B assay; conditions: MCF7, 48 h
M14 = assay: Cytotoxicity against human M14 cells after 48 hrs by sulforhodamine B assay; conditions: M14, 48 h
MDA-MB-435 = assay: Cytotoxicity against human MDA-MB-435 cells after 48 hrs by sulforhodamine B assay; conditions: MDA-MB-435, 48 h
Hs-578T = assay: Cytotoxicity against human Hs578T cells after 48 hrs by sulforhodamine B assay
NCI-H460 [1] = assay: Cytotoxicity against human NCI-H460 cell assessed as cell death at 100 uM after 12 hrs by Hoechst 33342/propidium iodide staining based fluorescence microscopy
HCT-15 = assay: Cytotoxicity against human HCT15 cells after 48 hrs by sulforhodamine B assay; conditions: HCT-15, 48 h
UACC-257 = assay: Cytotoxicity against human UACC257 cells after 48 hrs by sulforhodamine B assay; conditions: UACC-257, 48 h
ACHN = assay: Cytotoxicity against human ACHN cells after 48 hrs by sulforhodamine B assay
UACC-62 = assay: Cytotoxicity against human UACC62 cells after 48 hrs by sulforhodamine B assay; conditions: UACC-62, 48 h
SN12C = assay: Cytotoxicity against human SN12C cells after 48 hrs by sulforhodamine B assay
NCI-H460 [2] = assay: Cytotoxicity against human NCI-H460 cell assessed as cell death at 100 nM after 12 hrs by Hoechst 33342/propidium iodide staining based fluorescence microscopy
786-0 = assay: Cytotoxicity against human 786-0 cells after 48 hrs by sulforhodamine B assay; conditions: 786-0, 48 h
NCI-H460 [3] = assay: Cytotoxicity against human NCI-H460 cell assessed as cell death after 12 hrs by Hoechst 33342/propidium iodide staining based fluorescence microscopy; conditions: NCI-H460, 12 h
HOP-62 = assay: Cytotoxicity against human HOP62 cells after 48 hrs by sulforhodamine B assay; conditions: HOP-62, 48 h
MOLT-4 = assay: Cytotoxicity against human MOLT4 cells after 48 hrs by sulforhodamine B assay; conditions: MOLT-4, 48 h
LOX IMVI = assay: Cytotoxicity against human LOXIMVI cells after 48 hrs by sulforhodamine B assay
SF-268 = assay: Cytotoxicity against human SF268 cells after 48 hrs by sulforhodamine B assay; conditions: SF-268, 48 h
NCI-H460 [4] = assay: Cytotoxicity against human NCI-H460 cell assessed as cell death at 500 nM after 12 hrs by Hoechst 33342/propidium iodide staining based fluorescence microscopy
UO-31 = assay: Cytotoxicity against human UO31 cells after 48 hrs by sulforhodamine B assay; conditions: UO-31, 48 h
MDA-MB-231 = assay: Cytotoxicity against human MDA-MB-231 cells after 48 hrs by sulforhodamine B assay; conditions: MDA-MB-231, 48 h
NCI-H460 [5] = assay: Cytotoxicity against human NCI-H460 cells in serum free medium assessed as cell death at 10 uM after 12 hrs by Hoechst 33342/propidium iodide staining based fluorescence microscopy
COLO 205 = assay: Cytotoxicity against human COLO205 cells after 48 hrs by sulforhodamine B assay; conditions: COLO 205, 48 h
SR = assay: Cytotoxicity against human SR cells after 48 hrs by sulforhodamine B assay
SNB-75 = assay: Cytotoxicity against human SNB75 cells after 48 hrs by sulforhodamine B assay; conditions: SNB-75, 48 h
NCI-H460 [6] = assay: Cytotoxicity against human NCI-H460 cell assessed as cell death at 50 nM after 12 hrs by Hoechst 33342/propidium iodide staining based fluorescence microscopy
TK-10 = assay: Cytotoxicity against human TK10 cells after 48 hrs by sulforhodamine B assay; conditions: TK-10, 48 h
Malme-3M = assay: Cytotoxicity against human MALME-3M cells after 48 hrs by sulforhodamine B assay
NCI-H460 [7] = assay: Cytotoxicity against human NCI-H460 cells after 48 hrs by sulforhodamine B assay; conditions: NCI-H460, 48 h
SF-539 = assay: Cytotoxicity against human SF539 cells after 48 hrs by sulforhodamine B assay; conditions: SF-539, 48 h
SNB-19 = assay: Cytotoxicity against human SNB19 cells after 48 hrs by sulforhodamine B assay; conditions: SNB-19, 48 h
A498 = assay: Cytotoxicity against human A498 cells after 48 hrs by sulforhodamine B assay; conditions: A498, 48 h
SW-620 = assay: Cytotoxicity against human SW620 cells after 48 hrs by sulforhodamine B assay; conditions: SW-620, 48 h
HT-29 = assay: Cytotoxicity against human HT-29 cells after 48 hrs by sulforhodamine B assay; conditions: HT-29, 48 h
NCI-H322M = assay: Cytotoxicity against human NCI-H322M cells after 48 hrs by sulforhodamine B assay
OVCAR-3 = assay: Cytotoxicity against human OVCAR3 cells after 48 hrs by sulforhodamine B assay; conditions: OVCAR-3, 48 h
SK-MEL-5 = assay: Cytotoxicity against human SK-MEL-5 cells after 48 hrs by sulforhodamine B assay; conditions: SK-MEL-5, 48 h
KM12 = assay: Cytotoxicity against human KM12 cells after 48 hrs by sulforhodamine B assay; conditions: KM12, 48 h
SF-295 = assay: Cytotoxicity against human SF295 cells after 48 hrs by sulforhodamine B assay; conditions: SF-295, 48 h
NCI-H522 = assay: Cytotoxicity against human NCI-H522 cells after 48 hrs by sulforhodamine B assay; conditions: NCI-H522, 48 h
EKVX = assay: Cytotoxicity against human EKVX cells after 48 hrs by sulforhodamine B assay
RPMI-8226 = assay: Cytotoxicity against human RPMI8226 cells after 48 hrs by sulforhodamine B assay; conditions: RPMI-8226, 48 h
NCI-H460 [8] = assay: Cytotoxicity against human NCI-H460 cell assessed as cell death at 1 uM after 12 hrs by Hoechst 33342/propidium iodide staining based fluorescence microscopy
NCI-H460 [9] = assay: Cytotoxicity against human NCI-H460 cell assessed as cell death at 10 nM after 12 hrs by Hoechst 33342/propidium iodide staining based fluorescence microscopy
U-251 = assay: Cytotoxicity against human U251 cells after 48 hrs by sulforhodamine B assay; conditions: U-251, 48 h
SK-MEL-28 = assay: Cytotoxicity against human SK-MEL-28 cells after 48 hrs by sulforhodamine B assay; conditions: SK-MEL-28, 48 h
NCI-H460 [10] = assay: Induction of apoptosis in human NCI-H460 cells in at 50 nM after 12 hrs by Hoechst 33342/propidium iodide staining based fluorescence microscopy
OVCAR-8 = assay: Cytotoxicity against human OVCAR8 cells after 48 hrs by sulforhodamine B assay; conditions: OVCAR-8, 48 h
NCI-H226 = assay: Cytotoxicity against human NCI-H226 cells after 48 hrs by sulforhodamine B assay; conditions: NCI-H226, 48 h
PC-3 = assay: Cytotoxicity against human PC3 cells after 48 hrs by sulforhodamine B assay; conditions: PC-3, 48 h
A549 = assay: Cytotoxicity against human A549 cells after 48 hrs by sulforhodamine B assay; conditions: A549, 48 h
SK-OV-3 = assay: Cytotoxicity against human SKOV3 cells after 48 hrs by sulforhodamine B assay; conditions: SK-OV-3, 48 h
HOP-92 = assay: Cytotoxicity against human HOP92 cells after 48 hrs by sulforhodamine B assay; conditions: HOP-92, 48 h
OVCAR-4 = assay: Cytotoxicity against human OVCAR4 cells after 48 hrs by sulforhodamine B assay; conditions: OVCAR-4, 48 h
T47D = assay: Cytotoxicity against human T47D cells after 48 hrs by sulforhodamine B assay

C[C@H]1O[C@H](O[C@H]2CC[C@@]3(C)[C@H](CC[C@@H]4[C@@H]3CC[C@]3(C)[C@@H](C5=CC(=O)OC5)CC[C@]43O)C2)CC[C@@H]1O
GI50 (DU-145): 30.5 nM | GI50 (NCI-H23): 42.7 nM | GI50 (MCF7): 79.3 nM | GI50 (M14): 156 nM | GI50 (MDA-MB-435): 115 nM | GI50 (Hs-578T): 26.1 nM | Activity (NCI-H460 [1]): 100% | GI50 (HCT-15): 116 nM | GI50 (UACC-257): 157 nM | GI50 (ACHN): 34.8 nM | GI50 (UACC-62): 168 nM | GI50 (SN12C): 40.9 nM | Activity (NCI-H460 [2]): 24.88% | GI50 (786-0): 58.2 nM | IC50 (NCI-H460 [3]): 387 nM | GI50 (HOP-62): 56.4 nM | GI50 (MOLT-4): 35.3 nM | GI50 (LOX IMVI): 60.6 nM | GI50 (SF-268): 37.8 nM | Activity (NCI-H460 [4]): 58.34% | GI50 (UO-31): 57 nM | GI50 (MDA-MB-231): 392 nM | Activity (NCI-H460 [5]): 100% | GI50 (COLO 205): 348 nM | GI50 (SR): 79.5 nM | GI50 (SNB-75): 99 nM | Activity (NCI-H460 [6]): 19.63% | GI50 (TK-10): 46.3 nM | GI50 (Malme-3M): 182 nM | GI50 (NCI-H460 [7]): 35.1 nM | GI50 (SF-539): 43.8 nM | GI50 (SNB-19): 315 nM | GI50 (A498): 131 nM | GI50 (SW-620): 52.6 nM | GI50 (HT-29): 97 nM | GI50 (NCI-H322M): 106 nM | GI50 (OVCAR-3): 47.8 nM | GI50 (SK-MEL-5): 37.1 nM | GI50 (KM12): 228 nM | GI50 (SF-295): 71.6 nM | GI50 (NCI-H522): 40.8 nM | GI50 (EKVX): 62.1 nM | GI50 (RPMI-8226): 117 nM | Activity (NCI-H460 [8]): 89.05% | Activity (NCI-H460 [9]): 16.63% | GI50 (U-251): 35.3 nM | GI50 (SK-MEL-28): 186 nM | Activity (NCI-H460 [10]): 15.33% | GI50 (OVCAR-8): 76.7 nM | GI50 (NCI-H226): 168 nM | GI50 (PC-3): 101 nM | GI50 (A549): 30.6 nM | GI50 (SK-OV-3): 194 nM | GI50 (HOP-92): 128 nM | GI50 (OVCAR-4): 191 nM | GI50 (T47D): 409 nM

C[C@@H]1O[C@@H](O[C@H]2CC[C@@]3(C)[C@H](CC[C@@H]4[C@@H]3CC[C@]3(C)[C@@H](C5=CC(=O)OC5)CC[C@]43O)C2)CC[C@H]1O [RAMNODIGIN]
GI50 (DU-145): 3.45 nM | GI50 (NCI-H23): 4.13 nM | GI50 (MCF7): 5.89 nM | GI50 (M14): 19.3 nM | GI50 (MDA-MB-435): 27.7 nM | GI50 (Hs-578T): 4.57 nM | Activity (NCI-H460 [1]): 100% | GI50 (HCT-15): 20.5 nM | GI50 (UACC-257): 19.6 nM | GI50 (ACHN): 4.31 nM | GI50 (UACC-62): 12.7 nM | GI50 (SN12C): 3.61 nM | Activity (NCI-H460 [2]): 87.28% | GI50 (786-0): 6.21 nM | IC50 (NCI-H460 [3]): 48 nM | GI50 (HOP-62): 8.55 nM | GI50 (MOLT-4): 2.57 nM | GI50 (LOX IMVI): 11.8 nM | GI50 (SF-268): 4.28 nM | Activity (NCI-H460 [4]): 100% | GI50 (UO-31): 5.15 nM | GI50 (MDA-MB-231): 33.9 nM | Activity (NCI-H460 [5]): 100% | GI50 (COLO 205): 29.6 nM | GI50 (SR): 2.25 nM | GI50 (SNB-75): 14.9 nM | Activity (NCI-H460 [6]): 53.65% | GI50 (TK-10): 3.75 nM | GI50 (Malme-3M): 18.3 nM | GI50 (NCI-H460 [7]): 3.83 nM | GI50 (SF-539): 7.8 nM | GI50 (SNB-19): 37.5 nM | GI50 (A498): 20.7 nM | GI50 (SW-620): 11.1 nM | GI50 (HT-29): 11.9 nM | GI50 (NCI-H322M): 7.78 nM | GI50 (OVCAR-3): 4.94 nM | GI50 (SK-MEL-5): 5.44 nM | GI50 (KM12): 32.4 nM | GI50 (SF-295): 10.4 nM | GI50 (NCI-H522): 9.38 nM | GI50 (EKVX): 5.13 nM | GI50 (RPMI-8226): 23.5 nM | Activity (NCI-H460 [8]): 100% | Activity (NCI-H460 [9]): 15.1% | GI50 (U-251): 2.57 nM | GI50 (SK-MEL-28): 23.1 nM | Activity (NCI-H460 [10]): 45.71% | GI50 (OVCAR-8): 2.5 nM | GI50 (NCI-H226): 19.3 nM | GI50 (PC-3): 9.55 nM | GI50 (A549): 1.56 nM | GI50 (SK-OV-3): 22.2 nM | GI50 (HOP-92): 11.3 nM | GI50 (OVCAR-4): 18.9 nM | GI50 (T47D): 21 nM
